Assay: Waters ACQUITY UPLC HSS T3, 0.4 mL/min; A: water + 0.1% formic acid; B: acetonitrile + 0.1% formic acid; gradient (min/%B) 0/5 1.5/5 12/95 14/95 14.01/100 17/100
Conditions: stereoisomer not certain

| SMILES | LC retention time |
| --- | --- |
| CC12CCC(O)(CC1OC1OC(CO)C(O)C(O)C1O)C(C)(C)O2 (configuration not stated) | 3.99 min |
| CCCCCON=O | 1.02 min |
| Cc1cc(O)cc(O)c1C(=O)OC1CC2(C)C3CC(C)(C)CC3C=C(C=O)C12 (configuration not stated) | 10.6 min |
| CCCCCC1OC(=O)C(C(C)CC)N(C)C(=O)C2CCCN2C(=O)C(C(C)C)OC(=O)C(Cc2ccccc2)N(C)C(=O)C(C(C)C)NC(=O)C1C (configuration not stated) | 9.85 min |
| NC(CCC(=O)O)C(=O)O (configuration not stated) | 0.786 min |
| COC(=O)C1(OC(C)=O)CC23CCC4C(C)(O)CCCC4(C)C2CCC1C3 (configuration not stated) | 5.17 min |
| CC1CCC2(C(=O)O)CCC3(C)C(=CCC4C5(C)CCC(OC(=O)c6ccccc6)C(C)(C)C5C(=O)CC43C)C2C1C (configuration not stated) | 11 min |
| NCCCCCCCCCCCC(=O)O | 6.54 min |
| CCCCCCC=CCCCCCCCC(=O)OC(CO)COP(=O)(O)OCCN (configuration not stated) | 4.91 min |
| O=S(=O)([O-])CCCCCCCP(CCCCCCCS(=O)(=O)[O-])CN(CP(CCCCCCCS(=O)(=O)[O-])CCCCCCCS(=O)(=O)[O-])c1ccccc1 | 1.3 min |
| CC(NC(=O)C(N)CC(=O)O)NC(=O)N(C)C(C)(C)C (configuration not stated) | 0.829 min |
| CC1(OC2OC(CO)C(O)C(O)C2O)CC(O)C2(C(C)(C)O)CC12 (configuration not stated) | 3.99 min |
| C=C1C(=O)OC2C1CC=C1CC(C)(CCC1OO)C2O (configuration not stated) | 6.31 min |
| CC(=CC(O)C1OC1(C)C)C1CCC2(C)C1C(O)CC1C3(C)CCC(O)C(C)(C)C3C(OC3OC(CO)C(O)C(O)C3O)CC12C (configuration not stated) | 9.9 min |
| CC(C)SC(C)C | 1.02 min |
| CNC(CCC(=O)O)C(=O)O (configuration not stated) | 0.912 min |
| CCC(C)C(=O)OC(CC(=O)[O-])C[N+](C)(C)C (configuration not stated) | 4.04 min |
| CCCCCC(O)C=CC1C(O)CC(O)C1CC(=O)CCC(=O)O (configuration not stated) | 8.51 min |
| CC1(COC(=O)c2ccccc2)CCC2(C)CCC3(C)C4=CCC5C(C)(CCC(OC(=O)c6ccc(N)cc6)C5(C)C)C4=CCC3(C)C2C1 (configuration not stated) | 10.9 min |
| OC1CC2CC(O)C(C1)N2 (configuration not stated) | 0.818 min |
| CCCCC=CCCCCCCCC(=O)OCC(COP(=O)(O)OCC(N)C(=O)O)OC(=O)CCCCCCCCCCC (configuration not stated) | 5.43 min |
| CCCCCC(O)C=CC=CCC=CCC=CCCCC(=O)NCCS(=O)(=O)O (configuration not stated) | 4.09 min |
| CCO[SiH](CCCSCCC[SiH](OCC)OCC)OCC | 1.02 min |
| C=CCC=CCC=CCCCCCCCC(C(=O)OC)C(=O)C(=CC(=O)OC)OC (configuration not stated) | 5.18 min |
| CC(=O)NC(CO)C(=O)O (configuration not stated) | 0.786 min |
| COc1cc2c(cc1OC)CN(C)CC2 | 4.98 min |

| SMILES | LC retention time |
| --- | --- |
| Nc1nc2c(ncn2C2CC(O)C(COP(=O)(O)O)O2)c(=O)[nH]1 (configuration not stated) | 0.934 min |
| CCCCCC(=O)OCCC(CCC)SC (configuration not stated) | 3.91 min |
| CCCCCCC=CC=CCCCCCCCC(=O)OC(COC(=O)CCCCCCCCC(C)C)COP(=O)(O)OCC(O)CO (configuration not stated) | 12.1 min |
| COc1cc(CCCO)ccc1OC(CO)COC1OCC(O)C(O)C1O (configuration not stated) | 0.755 min |
| CC(C)=CC1c2[nH]c3ccccc3c2CC2C(=O)N3CCCC3C(=O)N21 (configuration not stated) | 3.99 min |
| CCCCCC(=O)CCC1C=CC(=O)C1CC=CCCCC(=O)O (configuration not stated) | 4.99 min |
| Nc1nc2c(ncn2CCC(CO)CO)c(=O)[nH]1 | 1.03 min |
| CC(=O)C1CCC2C3CCC4CC(=O)CCC4(C)C3CCC12C (configuration not stated) | 11.8 min |
| Nc1ccnc(=O)[nH]1 | 1.02 min |
| O=c1[nH]cnc2nc[nH]c12 | 1.1 min |
| CCC=CCC=CCC=CCC=CCC=CCC=CCCC(=O)OCC(O)COP(=O)(O)OCCN (configuration not stated) | 4.65 min |
| Nc1ncnc2c1ncn2C1OC(COP(=O)(O)O)C(O)C1O (configuration not stated) | 0.934 min |
| Oc1cc(O)c2c(c1)OC(c1cc(O)c(O)c(O)c1)C(O)C2 (configuration not stated) | 1.05 min |
| NCCCCC(=O)O | 1.02 min |
| CC1CCC(C(C)(O)CO)CC1OC1OC(CO)C(O)C(O)C1O (configuration not stated) | 5.08 min |
| C[N+](C)(C)CC(O)CC(=O)[O-] (configuration not stated) | 0.75 min |
| CC1CCC2(C(=O)O)CCC3(C)C(=CC(=O)C4C5(C)CCC(OC(=O)c6ccccc6)C(C)(C)C5CCC43C)C2C1C (configuration not stated) | 11 min |
| CC(=O)NC(CC(C)C)C(=O)NC(CC(C)C)C(=O)NC(C=O)CCCN=C(N)N (configuration not stated) | 12.2 min |
| CCCCC(S)CCOC (configuration not stated) | 0.75 min |
| CC1(C)OC2(C)CC(O)C1CC2OC1OC(CO)C(O)C(O)C1O (configuration not stated) | 3.99 min |
| CC(O)C1CCC2C3CCC4=CC(=O)CCC4(C)C3CCC12C (configuration not stated) | 11.8 min |
| CC(C=CCC1C(=O)CCC1CC(=O)O)OC1OC(CO)C(O)C(O)C1O (configuration not stated) | 0.755 min |
| C=C(C)C1CCC2(C(=O)O)CCC3(C)C(CCC4C5(C)CC(O)C(OC(=O)C=Cc6ccc(O)cc6)C(C)(C)C5CCC43C)C12 (configuration not stated) | 11 min |
| CC(C)C(CCC(C)C1CC(O)C2C1(C)CCC1C3(C)CCC(OC4OCC(O)C(O)C4O)CC3C(O)CC12O)OC1OCC(O)C(O)C1O (configuration not stated) | 5.56 min |
| O=C(O)CCCSCCCCSCCCC(=O)O | 0.766 min |
| COC(=O)C12CCC(C)(C)CC1C1=CCC3C4(C)CCC(OC(=O)C=Cc5ccc(OC)cc5)C(C)(C)C4CCC3(C)C1(C)CC2 (configuration not stated) | 13.1 min |

| SMILES | LC retention time |
| --- | --- |
| CCCC(N)C(=O)O (configuration not stated) | 1.02 min |
| CC1CCC(C(C)(O)COC2OC(CO)C(O)C(O)C2O)CC1O (configuration not stated) | 5.08 min |
| CC(C)=CCCC(C)(OC1OC(CO)C(O)C(O)C1O)C1CCC2(C)C1C(O)CC1C3(C)CCC(OC4OC(CO)C(O)C(O)C4O)C(C)(C)C3CCC12C (configuration not stated) | 9.82 min |
| CSCCC(N)C(=O)O (configuration not stated) | 1.04 min |
| CCC=CCC(O)C(O)C=CC=CC=CC=CC(O)CC=CCCC(=O)O (configuration not stated) | 5.01 min |
| CC(N)C(=O)O (configuration not stated) | 0.806 min |
| CCC(C)C(C(=O)NC(C(=O)NC1C(=O)NC(Cc2c[nH]c3ccccc23)C(=O)NCC(=O)c2ccc(cc2)OC1(C)C)C(C)C)N(C)C (configuration not stated) | 5.47 min |
| CN1CC(=O)NC1=N | 0.794 min |
| CC1CCC2(C(=O)O)CCC3(C)C(=CCC4C5(C)CC(O)C(OC(=O)C=Cc6ccc(O)cc6)C(C)(C)C5CCC43C)C2C1C (configuration not stated) | 11 min |
| CNC(CC(=O)O)C(=O)O (configuration not stated) | 0.786 min |
| CCCCCCCCCCCCCCCCCCC(=O)OCC(O)COP(=O)(O)OCC(N)C(=O)O (configuration not stated) | 5.17 min |
| Nc1cncn1C1OC(COP(=O)(O)O)C(O)C1O (configuration not stated) | 0.711 min |
| CNc1ccccc1C(=O)OCC(C)C | 4.98 min |
| CCCCCCCCCCCCCCCC(=O)OCC(COP(=O)([O-])OCC[N+](C)(C)C)OC(=O)CCCC(O)C=CC=O (configuration not stated) | 5.43 min |
| C=C(CO)C1CCC(C)(O)C(OC2OC(CO)C(O)C(O)C2O)C1 (configuration not stated) | 3.99 min |
| CCCCCCCCCCCCCCCCCCOC(=O)C(O)(CC(=O)O)CC(=O)O | 10.5 min |
| CNC(C)(C)C(=O)O | 1.02 min |
| CCCCN(CCCN(CCCN(CCCN)CCCN)CCCN(CCCN)CCCN)CCCN(CCCN(CCCN)CCCN)CCCN(CCCN)CCCN | 0.706 min |
| CCC(C)C(N)C(=O)O (configuration not stated) | 1.31 min |
| CCC1OC(=O)C(C)C(OC2CC(C)(O)C(O)C(C)O2)C(C)C(O)C(C)(O)CC(C)C(=O)C(C)C(O)C1C (configuration not stated) | 9.82 min |
| COc1ccc(COC2OC(CO)C(O)C(O)C2OS(=O)(=O)O)cc1 (configuration not stated) | 0.842 min |
| CC1CCC2C(C)C3C(CC4C5CC=C6CC(OC7OC(CO)C(O)C(OC8OC(CO)C(O)C(O)C8O)C7O)CCC6(C)C5CCC43C)N2C1 (configuration not stated) | 9.86 min |
| Cc1c(C)c(C(=O)C(C)O)n2c1CCC2 (configuration not stated) | 4.98 min |
| CCCCCCC=CCCCCCCCC(=O)OCC(COP(=O)(O)OCC(O)CO)OC(=O)CCCCCCCC=CCCCCCC (configuration not stated) | 13 min |
| CC(C)=CCCC(C)(O)C1CCC2(C)C1C(O)CC1C3(C)CCC(OC4OC(COC5OCC(O)C(O)C5O)C(O)C(O)C4O)C(C)(C)C3CCC12C (configuration not stated) | 10.8 min |
| O=C(Oc1cc(O)cc(O)c1C(=O)O)c1ccc(O)c(O)c1 | 1.15 min |

| SMILES | LC retention time |
| --- | --- |
| CCCCCCCCCCCCCCCCCCCCCCCCC(=O)NCC(=O)O | 9.77 min |
| CCCCCCC=CCCCCCCCCCC(=O)OC(CCC(=O)[O-])[N+](C)(C)C (configuration not stated) | 9.56 min |
| CC(C)N | 0.706 min |
| CCCCCCCCC=CCCCCCCCC(=O)OC(CC(=O)[O-])C[N+](C)(C)C (configuration not stated) | 9.56 min |
| CCC=CCC=CCC=CCCCCCCCC(=O)OC(COC(=O)CCCCCCCCCCCCCCC)COP(=O)(O)OCC(O)CO (configuration not stated) | 13.9 min |
| CC1=CC(O)CC(C)(C)C1(O)C=CC(C)OC1OC(COC2OCC(O)(CO)C2O)C(O)C(O)C1O (configuration not stated) | 4.44 min |
| CC1(C)OC2(CO)CCC1CC2OC1OC(CO)C(O)C(O)C1O (configuration not stated) | 3.99 min |
| CCCCCC=CCC=CCCCCCCCC(=O)OC(COC(=O)CCCCCCCC=CCCCCCC)COP(=O)(O)OCC(O)CO (configuration not stated) | 13.9 min |
| CN(C)C | 0.706 min |
| CC(=O)OCC(N)C(=O)O (configuration not stated) | 0.786 min |
| CC(=O)c1cnccn1 | 1.06 min |
| CC(=CC(=O)OC1OC(CO)C(O)C(O)C1O)CCC=C(C)CCC(O)C(C)(C)O (configuration not stated) | 9.03 min |
| CCC(C(=O)CC(C)C1=C(O)C(=O)C2C3CCC4CC(OC5OC(C(=O)O)C(O)C(O)C5O)CCC4(C)C3CCC12C)C(C)C (configuration not stated) | 11 min |
| COc1cc2c(c(OC)c1CC=C(C)C)CC(c1ccc(O)c3c1OC(C)(C)C=C3)CO2 (configuration not stated) | 4.37 min |
| C=C1CCC2C(OC(=O)C2(O)CO)C2C(C)C(=O)CC12 (configuration not stated) | 6.31 min |
| C=CC1(CO)CCC(C(C)(C)OC2OC(CO)C(O)C(O)C2O)O1 (configuration not stated) | 3.99 min |
| CC(=O)OCCC(N)C(=O)O (configuration not stated) | 0.912 min |
| CCCCCC(O)C=CC1=CCC(=O)C1CC=CCCCC(=O)O (configuration not stated) | 4.99 min |
| CN1C2CCC1(O)C(O)C(O)C2O (configuration not stated) | 1.05 min |
| COC1(CCC(C)COC2OC(CO)C(O)C(O)C2O)OC2CC3C4CCC5CC(=O)CCC5(C)C4CCC3(C)C2C1C (configuration not stated) | 9.93 min |
| CCCCCC(=O)CCOC1OC(CO)C(O)C(O)C1O (configuration not stated) | 4.89 min |
| CCCCCCCCCCCCCCCC(=O)OC1C(C)OC(OC2C(OCCCC)OC(CO)C(O)C2O)C(O)C1O (configuration not stated) | 10.4 min |
| COC1CCC(=O)N1 (configuration not stated) | 0.851 min |
| O=C(OCC1OC(Oc2ccc(C=Cc3cc(O)cc(O)c3)cc2O)C(O)C(O)C1O)c1cc(O)c(O)c(O)c1 (configuration not stated) | 1.11 min |
